Data taken from patent publication US20250136592A1, “C-LINKED INHIBITORS OF ENL/AF9 YEATS” (Bridge Medicines, priority 2021, published 2025).
pEC50, pIC50: −log10 of the molar value. Like-named read-outs stand apart in the source and are kept apart here.

How the values were obtained:
[1] = tested on: MV4:11 (MLL-AF4 MLL) cells; experiment: Cell viability assay (CellTiter-Glo), 12 days; assay type: cell-based; conditions: MV4;11 cells, 12 day, read-out: CTG_MV4, 11 12 DAY_EC50
Protocol: The assays were conducted over 12 days and the cells being split on days 4 and 8. […] Blank wells received cell culture medium. Plates were incubated for 4 days at 37° C. with 5% CO2. On days 4 and day 8 the cells were split and incubated for a further 4 days whilst an aliquot of cells were taken for the CTG readout. For the cell splitting, 270 nL of compounds or DMSO was added to a new 96 well cell culture plate to which 90 μL of medium plus 10 μL of cells from the original assay plate (after mixing) or 100 μL of medium (Blank wells) was added. This was repeated on day 8.
Cell viability was assessed using the CellTiter-Glo® homogeneous luminescent assay kit (Promega, G9243), according to the manufacturer's instructions. This quantifies ATP, which indicates the presence of metabolically active cells. […] The resulting data were analyzed as follows:
where vehicle are cells treated with 0.3% DMSO, Blank is culture medium. IC50 determinations were calculated by fitting the curve using XLfit (v5.3.1.3): Y=Bottom+(Top−Bottom)/(1+10^((LogIC50−X)*HillSlope)).

ENL YEATS domain = ENL YEATS domain (Homo sapiens (Human), UniProt Q03111); experiment: TR-FRET ENL Screening Assay; conditions: 6xHIS ENL YEATS domain binding to H3K9cr peptide
ENL YEATS domain, sequence (Q03111 1-138): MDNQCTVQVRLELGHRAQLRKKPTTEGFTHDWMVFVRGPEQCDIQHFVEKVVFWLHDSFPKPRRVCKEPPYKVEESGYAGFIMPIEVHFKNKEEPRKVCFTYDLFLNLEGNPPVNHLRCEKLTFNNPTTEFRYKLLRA
Protocol: Compounds of the invention were tested in a TR-FRET ENL Screening Assay. TR-FRET (time-resolved fluorescence energy transfer) can be used to quantify ENL YEATS domain binding to a crotonylated histone peptide (H3K9cr, aa1-20). Streptavidin-Europium (Eu) chelate binds the biotinylated peptide, while Anti-6×HIS ULight™ binds 6×HIS-ENL. When Eu chelate is excited at 320 nm, fluorescence resonance energy transfer (FRET) occurs if Eu and ULight are made proximal by ENL binding to the acyl-peptide.
Low control (LC) wells received 5 μL of assay buffer instead of ENL protein. […] The response at each compound concentration minus the LC value was converted to percent inhibition of the vehicle control group response (HC-LC).

Row | pEC50 ([1]; Homo sapiens, 288 h) | pIC50 (ENL YEATS domain) | Compound | pEC50 [1]
1 | 5.49 |  | Cc1cc2ccc(C(=O)Nc3cc4[nH]c([C@H]5CCCN5C)cc4cn3)cn2n1 [Example 1, 2-methyl-N-{2-[(2R)-1-methylpyrrolidin-2-yl]-1H-pyrrolo[3,2-c]pyridin-6-yl}pyrazolo[1,5-a]pyridine-6-carboxamide] | 
2 | 6.91 | 7.00 | CN1CCCC[C@@H]1c1cc2cnc(NC(=O)c3ccc4cnn(C)c4c3)cc2[nH]1 [Example 8, 1-methyl-N-[2-[(2R)-1-methylpiperidin-2-yl]-1H-pyrrolo[3,2-c]pyridin-6-yl]indazole-6-carboxamide] | 
3 | 6.73 | 6.88 | Cc1ncc2ccc(C(=O)Nc3cc4[nH]c([C@H]5CCCN5C)cc4cn3)cn12 [Example 28] | 
4 | 5.95 | 7.68 | CN1CCC[C@@H]1c1cc2cnc(NC(=O)c3ccc4c(C5CC5)nn(C)c4c3)cc2[nH]1 [Example 29] | 
5 | 7.41 | 7.29 | Cc1noc2cc(C(=O)Nc3cc4[nH]c([C@H]5CCCN5C)cc4cn3)ccc12 [Example 30] | 
6 | 7.04 | 7.24 | Cc1n[nH]c2ccc(C(=O)Nc3cc4[nH]c([C@H]5CCCN5C)cc4cn3)cc12 [Example 31] | 
7 | 4.91 | 7.24 | Cc1ncn2cc(C(=O)Nc3cc4[nH]c([C@H]5CCCN5C)cc4cn3)ccc12 [Example 32] | 
8 | 6.24 | 7.32 | Cc1cnn2cc(C(=O)Nc3cc4[nH]c([C@H]5CCCN5C)cc4cn3)ccc12 [Example 34] | 
9 | 6.07 | 7.37 | Cc1cnn2ccc(C(=O)Nc3cc4[nH]c([C@H]5CCCN5C)cc4cn3)cc12 [Example 36] | 
10 | 7.06 | 7.03 | CN1CCC[C@@H]1c1cc2cnc(NC(=O)c3ccc4cnn(C)c4c3)cc2[nH]1 [Example 38] | 
11 | 5.56 | 7.37 | CN1CCC[C@@H]1c1cc2cnc(NC(=O)c3ccc4c(C(F)(F)F)nn(C)c4c3)cc2[nH]1 [Example 39] | 
12 |  | 6.11 | CN1CCC[C@@H]1c1cc2cnc(NC(=O)c3cnc4c(ccn4C)c3)cc2[nH]1 [Example 44] | 
13 |  | 7.52 | CN1CCC[C@@H]1c1cc2cnc(NC(=O)c3ccc4c(c3)[nH]c(=O)n4C)cc2[nH]1 [Example 48] | 
14 |  | 7.60 | COc1nccc2cc(C(=O)Nc3cc4[nH]c([C@H]5CCCN5C)cc4cn3)ccc12 [Example 52] | 
15 | 6.66 |  | Cc1nc(C)n2cc(C(=O)Nc3cc4[nH]c([C@H]5CCCN5C)cc4cn3)ccc12 [Example 71] | 
16 | 6.35 |  | CNc1nccc2cc(C(=O)Nc3cc4[nH]c([C@H]5CCCN5C)cc4cn3)ccc12 [Example 79, (R)-1-(methylamino)-N-(2-(1-methylpyrrolidin-2-yl)-1H-pyrrolo[3,2-c]pyridin-6-yl) isoquinoline-6-carboxamide] | 
17 | 6.73 |  | Cc1nccc2cc(C(=O)Nc3cc4[nH]c([C@H]5CCCCN5C)cc4cn3)ccc12 [Example 80, (R)-1-methyl-N-(2-(1-methylpiperidin-2-yl)-1H-pyrrolo[3,2-c]pyridin-6-yl) isoquinoline-6-carboxamide] | 
18 | 6.67 |  | CN1CCCC[C@@H]1c1cc2cnc(NC(=O)c3ccc4nnn(C)c4c3)cc2[nH]1 [Example 91, (R)-1-methyl-N-(2-(1-methylpiperidin-2-yl)-1H-pyrrolo[3,2-c]pyridin-6-yl)-1H-benzo[d][1,2,3]triazole-6-carboxamide] | 
19 | 6.35 |  | CN1C(=O)Cc2cc(C(=O)Nc3cc4[nH]c([C@H]5CCCCN5C)cc4cn3)ccc21 [Example 95] | 
20 | 6.84 |  | CN1CCCC[C@@H]1c1cc2cnc(NC(=O)c3ccc4cc(=O)n(C)n4c3)cc2[nH]1 [Example 97] | 
21 | 6.36 |  | CN1CCCC[C@@H]1c1cc2cnc(NC(=O)c3ccc4c(cnn4C)c3)cc2[nH]1 [Example 98] | 
22 | 6.69 |  | CN1CCCC[C@@H]1c1cc2cnc(NC(=O)c3ccc4c(=O)n(C)ccc4c3)cc2[nH]1 [Example 100, (R)-2-methyl-N-(2-(1-methylpiperidin-2-yl)-1H-pyrrolo[3,2-c]pyridin-6-yl)-1-oxo-1,2-dihydroisoquinoline-6-carboxamide] | 

Continued, compound first:

Row | Compound | pEC50 ([1]; Homo sapiens, 288 h) | pIC50 (ENL YEATS domain) | pEC50 [1]
23 | CN1CCCC1c1nc2cnc(NC(=O)c3ccc4c(cnn4C)c3)cc2[nH]1 (stereo not shown) [Example 2, 1-methyl-N-(2-(1-methylpyrrolidin-2-yl)-1H-imidazo[4,5-c]pyridin-6-yl)-1H-indazole-5-carboxamide] | 5.88 |  | 
24 | CN1CCC[C@@H]1c1nc2cc(NC(=O)c3ccc4c(cnn4-c4ccncc4)c3)ccc2[nH]1 [Example 3, (R)—N-(2-(1-methylpyrrolidin-2-yl)-1H-benzo[d]imidazol-5-yl)-1-(pyridin-4-yl)-1H-indazole-5-carboxamide] | 6.24 |  | 
25 | CC(O)c1ncc2cc(C(=O)Nc3cc4[nH]c([C@H]5CCCN5C)cc4cn3)ccn12 (stereo partly drawn) [Example 4, 3-(1-hydroxyethyl)-N-(2-((R)-1-methylpyrrolidin-2-yl)-1H-pyrrolo[3,2-c]pyridin-6-yl) imidazo[1,5-a]pyridine-7-carboxamide] |  | 6.69 | 5.36
26 | CN1CCC[C@@H]1c1cc2cnc(NC(=O)c3cc4c(cn3)cnn4C)cc2[nH]1 [Example 5, (R)-1-methyl-N-(2-(1-methylpyrrolidin-2-yl)-1H-pyrrolo[3,2-c]pyridin-6-yl)-1H-pyrazolo[4,3-c]pyridine-6-carboxamide] |  | 5.91 | 
27 | CN1CCC[C@@H]1c1cc2cnc(NC(=O)c3ccn4c(C5COC5)ncc4c3)cc2[nH]1 [Example 6, (R)—N-(2-(1-methylpyrrolidin-2-yl)-1H-pyrrolo[3,2-c]pyridin-6-yl)-3-(oxetan-3-yl) imidazo[1,5-a]pyridine-7-carboxamide] |  | 6.97 | 7.48
28 | CN1CCC[C@@H]1c1nc2cc(NC(=O)c3cc4cnn(-c5ccncc5)c4cc3F)ccc2[nH]1 [Example 7, (R)-6-fluoro-N-(2-(1-methylpyrrolidin-2-yl)-1H-benzo[d]imidazol-5-yl)-1-(pyridin-4-yl)-1H-indazole-5-carboxamide] | 7.00 | 6.85 | 
29 | CN1CCCCC1c1nc2cc(NC(=O)c3ccc4c(cnn4C)c3)ccc2[nH]1 (stereo not shown) [Example 9, 1-methyl-N-[2-(1-methylpiperidin-2-yl)-1H-1,3-benzodiazol-5-yl]indazole-5-carboxamide] |  | 6.70 | 
30 | CN1CCC[C@@H]1c1nc2ccc(NC(=O)c3ccc4c(C5CC5)nn(C)c4c3)cc2[nH]1 [Example 10] | 6.55 |  | 
31 | Cc1noc2ccc(C(=O)Nc3ccc4nc([C@H]5CCCN5C)[nH]c4c3)cc12 [Example 11] |  | 6.33 | 
32 | Cc1noc2cc(C(=O)Nc3ccc4nc(C5CCCN5C)[nH]c4c3)ccc12 (stereo not shown) [Example 12] | 6.70 | 7.11 | 
33 | CN1CCC[C@@H]1c1nc2cc(NC(=O)c3ccc4c(-c5ccncc5)noc4c3)ccc2[nH]1 [Example 13] | 6.44 |  | 
34 | Cc1noc2cc(C(=O)Nc3ccc4nc([C@H]5CCCN5C)[nH]c4c3)c(F)cc12 [Example 14] | 5.33 | 6.75 | 
35 | CN1CCC[C@@H]1c1nc2ccc(NC(=O)c3cc4cccnc4cc3F)cc2[nH]1 [Example 16] | 6.97 |  | 
36 | CN1CCC[C@@H]1c1nc2ccc(NC(=O)c3ccc4onc(C5CC5)c4c3)cc2[nH]1 [Example 17] | 5.49 |  | 
37 | Cc1noc2c(F)c(C(=O)Nc3ccc4nc([C@H]5CCCN5C)[nH]c4c3)ccc12 [Example 18] |  | 6.90 | 
38 | CN1CCC[C@@H]1c1nc2cc(NC(=O)c3ccc4c(cnn4-c4ccccn4)c3)ccc2[nH]1 [Example 21] |  | 6.70 | 
39 | CN1CCC[C@@H]1c1nc2cc(NC(=O)c3ccc4c(cnn4-c4cccnc4)c3)ccc2[nH]1 [Example 22] |  | 6.88 | 
40 | CN1CCC[C@@H]1c1nc2cc(NC(=O)c3ccc4c(cnn4-c4ccncn4)c3)ccc2[nH]1 [Example 23] |  | 6.56 | 
41 | CN1CCCC1c1nc2ccc(NC(=O)c3ccc4ncccc4c3)cc2[nH]1 (stereo not shown) [Example 25] |  | 6.74 | 
42 | CN1CCC[C@@H]1c1nc2cc(NC(=O)c3ccc4c(c3)[nH]c(=O)n4C)ccc2[nH]1 [Example 26] | 6.43 | 6.84 | 
43 | CN1CCC[C@@H]1c1cc2cnc(NC(=O)c3ccc4[nH]nc(C(F)(F)F)c4c3)cc2[nH]1 [Example 33] | 5.75 | 7.38 | 
44 | CN1CCC[C@@H]1c1cc2cnc(NC(=O)c3ccn4c(C(F)(F)F)ncc4c3)cc2[nH]1 [Example 35] | 6.57 | 6.94 | 
45 | CN1CCC[C@@H]1c1cc2cnc(NC(=O)c3ccc4c(C(F)(F)F)ncn4c3)cc2[nH]1 [Example 37] | 7.33 | 7.26 | 
46 | Cc1nc(C(F)(F)F)c2ccc(C(=O)Nc3cc4[nH]c([C@H]5CCCN5C)cc4cn3)cn12 [Example 53] | 5.28 |  | 
47 | Cc1ccc2cc(C(=O)Nc3cnc4cc([C@H]5CCCN5C)[nH]c4c3)c(F)cc2n1 [Example 73] | 5.85 |  | 
48 | CN1CCC[C@@H]1c1cc2cnc(NC(=O)c3ccc4c(c3)nnn4-c3ccncc3)cc2[nH]1 [Example 85] | 6.31 |  | 
